Measured values: patent US7772241B2, “Variolin derivatives and their use as antitumor agents” (Pharma Mar S.A., priority 2001, dated 2010)

Legend:
IGROV-1 = assay: Inhibition of cells growth by colorimetric (SRB) assay, IGROV-1
Method in brief: (§1)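 Human tumour cells seeded at 5×10^3/well in RPMI 1640 10% FBS, attached 18 h, then exposed 48 h to samples at 10 to 10^−8 μg/ml in DMSO/EtOH/PBS (0.5:0.5:99). Growth read by SRB staining after TCA fixation, OD 490 nm, triplicate wells; GI, TGI and LC derived.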

SK-OV-3 = assay: Inhibition of cells growth by colorimetric (SRB) assay, SK-OV-3
Method in brief: as §1

PANC-1 = assay: Inhibition of cells growth by colorimetric (SRB) assay, PANC-1
Method in brief: as §1

IGROV-ET = assay: Inhibition of cells growth by colorimetric (SRB) assay, IGROV-ET
Method in brief: as §1

HMEC1 = assay: Inhibition of cells growth by colorimetric (SRB) assay, HMEC1
[1] = as above; conditions: human, HMEC1 cells, LC50 H-MEC-1, SRB assay, 48 hours exposure
HT-29 = assay: Inhibition of cells growth by colorimetric (SRB) assay, HT-29
Method in brief: as §1

K-562 = assay: Inhibition of cells growth by colorimetric (SRB) assay, K-562
Method in brief: as §1

LoVo = assay: Inhibition of cells growth by colorimetric (SRB) assay, LoVo
Method in brief: as §1

LNCaP = assay: Inhibition of cells growth by colorimetric (SRB) assay, LNCaP
Method in brief: as §1

A-549 = assay: Inhibition of cells growth by colorimetric (SRB) assay, A-549
Method in brief: as §1

DU-145 = assay: Inhibition of cells growth by colorimetric (SRB) assay, DU-145
Method in brief: as §1

SK-MEL-28 = assay: Inhibition of cells growth by colorimetric (SRB) assay, SK-MEL-28
Method in brief: as §1

LoVo-Dox = assay: Inhibition of cells growth by colorimetric (SRB) assay, LoVo-Dox
Method in brief: as §1

SK-BR-3 = assay: Inhibition of cells growth by colorimetric (SRB) assay, SK-BR-3
Method in brief: as §1

Nc1nccc(-c2c3cc(F)c(Cl)nc3n3c(N)nccc23)n1 [Compound 50]
8.01 µM: GI50 (HMEC1; Homo sapiens, HMEC-1, 48 h, read-out: GI50 H-MEC-1, SRB assay, 48 hours exposure)
11.6 µM: GI50 (SK-BR-3; Homo sapiens, SK-BR-3, 48 h, read-out: GI50 SK-BR-3, SRB assay, 48 hours exposure)
5.25 µM: GI50 (A-549; Homo sapiens, A549, 48 h, read-out: GI50 A-549, SRB assay, 48 hours exposure)
1.88E−06: TGI LN-caP (LNCaP; SRB assay, 48 hours exposure)
≥ 30.3 µM: CC50 (IGROV-1; Homo sapiens, IGROV-1, 48 h, read-out: LC50 IGROV, SRB assay, 48 hours exposure) | CC50 (SK-OV-3; Homo sapiens, SK-OV-3, 48 h, read-out: LC50 SKOV-3, SRB assay, 48 hours exposure) | GI50 (PANC-1; Homo sapiens, PANC-1, 48 h, read-out: GI50 PANC-1, SRB assay, 48 hours exposure) | CC50 (PANC-1; Homo sapiens, PANC-1, 48 h, read-out: LC50 PANC-1, SRB assay, 48 hours exposure) | CC50 (IGROV-ET; Homo sapiens, 48 h, read-out: LC50 IGROV-ET, SRB assay, 48 hours exposure) | CC50 at 48 h [1] | GI50 (HT-29; Homo sapiens, HT-29, 48 h, read-out: GI50 HT-29, SRB assay, 48 hours exposure) | CC50 (HT-29; Homo sapiens, HT-29, 48 h, read-out: LC50 HT-29, SRB assay, 48 hours exposure) | GI50 (K-562; Homo sapiens, K562, 48 h, read-out: GI50 K-562, SRB assay, 48 hours exposure) | CC50 (K-562; Homo sapiens, K562, 48 h, read-out: LC50 K-562, SRB assay, 48 hours exposure) | CC50 (LoVo; Homo sapiens, LoVo, 48 h, read-out: LC50 LOVO, SRB assay, 48 hours exposure) | CC50 (LNCaP; Homo sapiens, LNCaP, 48 h, read-out: LC50 LN-caP, SRB assay, 48 hours exposure) | CC50 (A-549; Homo sapiens, A549, 48 h, read-out: LC50 A-549, SRB assay, 48 hours exposure) | CC50 (DU-145; Homo sapiens, DU-145, 48 h, read-out: LC50 DU-145, SRB assay, 48 hours exposure) | GI50 (SK-MEL-28; Homo sapiens, SK-MEL-28, 48 h, read-out: GI50 MEL-28, SRB assay, 48 hours exposure) | CC50 (SK-MEL-28; Homo sapiens, SK-MEL-28, 48 h, read-out: LC50 MEL-28, SRB assay, 48 hours exposure) | CC50 (LoVo-Dox; Homo sapiens, 48 h, read-out: LC50 LOVO-DOX, SRB assay, 48 hours exposure) | CC50 (SK-BR-3; Homo sapiens, SK-BR-3, 48 h, read-out: LC50 SK-BR-3, SRB assay, 48 hours exposure)
16.5 µM: GI50 (DU-145; Homo sapiens, DU-145, 48 h, read-out: GI50 DU-145, SRB assay, 48 hours exposure)
12 µM: GI50 (LoVo; Homo sapiens, LoVo, 48 h, read-out: GI50 LOVO, SRB assay, 48 hours exposure)
12.6 µM: GI50 (LoVo-Dox; Homo sapiens, 48 h, read-out: GI50 LOVO-DOX, SRB assay, 48 hours exposure)
0.886 µM: GI50 (LNCaP; Homo sapiens, LNCaP, 48 h, read-out: GI50 LN-caP, SRB assay, 48 hours exposure)
20.3 µM: GI50 (IGROV-1; Homo sapiens, IGROV-1, 48 h, read-out: GI50 IGROV, SRB assay, 48 hours exposure)
3.03E−05: TGI IGROV (IGROV-1; SRB assay, 48 hours exposure) | TGI SKOV-3 (SK-OV-3; SRB assay, 48 hours exposure) | TGI PANC-1 (PANC-1; SRB assay, 48 hours exposure) | TGI IGROV-ET (IGROV-ET; SRB assay, 48 hours exposure) | TGI HT-29 (HT-29; SRB assay, 48 hours exposure) | TGI K-562 (K-562; SRB assay, 48 hours exposure) | TGI LOVO (LoVo; SRB assay, 48 hours exposure) | TGI A-549 (A-549; SRB assay, 48 hours exposure) | TGI DU-145 (DU-145; SRB assay, 48 hours exposure) | TGI MEL-28 (SK-MEL-28; SRB assay, 48 hours exposure) | TGI LOVO-DOX (LoVo-Dox; SRB assay, 48 hours exposure) | TGI SK-BR-3 (SK-BR-3; SRB assay, 48 hours exposure)
2.44E−05: TGI H-MEC-1 (HMEC1; SRB assay, 48 hours exposure, in M (unit assumed))
12.9 µM: GI50 (IGROV-ET; Homo sapiens, 48 h, read-out: GI50 IGROV-ET, SRB assay, 48 hours exposure)
15.8 µM: GI50 (SK-OV-3; Homo sapiens, SK-OV-3, 48 h, read-out: GI50 SKOV-3, SRB assay, 48 hours exposure)
